These results are taken from ChEMBL document CHEMBL4052685, “Design, synthesis and tumor cell growth inhibitory activity of 3-nitro-2H-cheromene derivatives as histone deacetylaes inhibitors” (Bioorg Med Chem, 2017).

The test system of one assay is A549. Nature of the assay: Antiproliferative activity against human A549 cells after 48 hrs by MTT assay. In kind it is functional.
The subject of another assay is PC-3. Nature of the assay: Antiproliferative activity against human PC3 cells after 48 hrs by MTT assay. The class given is functional. For orientation: Tetrazolium assays rely on reduction of a dye to a coloured formazan, in cell work by metabolically active cells.
A further assay concerns MCF7. Nature of the assay: Antiproliferative activity against human MCF7 cells after 48 hrs by MTT assay. The class given is functional.
Assay [1] concerns the target T1, Histone deacetylase 2 (Homo sapiens, UniProt Q92769). The conditions noted are these: at 10 µM.
Description: Inhibition of HDAC2 (unknown origin) at 10 uM using Ac-Leu-GlyLys(Ac)-AMC as substrate preincubated for 10 mins followed by substrate addition measured after 30 mins by fluorescence analysis
The next assay deals with K562. Nature of the assay: Antiproliferative activity against human K562 cells after 48 hrs by MTT assay. The class given is functional.
In another assay the test system is HeLa. Nature of the assay: Antiproliferative activity against human HeLa cells after 48 hrs by MTT assay. The class given is functional.
The target of assay [2] is T1, Histone deacetylase 2. Nature of the assay: Inhibition of HDAC2 (unknown origin) using Ac-Leu-GlyLys(Ac)-AMC as substrate preincubated for 10 mins followed by substrate addition measured after 30 mins by fluorescence analysis.
Another assay concerns the target Histone deacetylase 1 (Homo sapiens, UniProt Q13547). Nature of the assay: Inhibition of HDAC1 (unknown origin) using Ac-Leu-GlyLys(Ac)-AMC as substrate preincubated for 10 mins followed by substrate addition measured after 30 mins by fluorescence analysis.

In general, GI50 refers to the concentration that inhibits growth by half. Low values mean more potent growth inhibition, high ones less potent growth inhibition. As a reminder, the inhibition is the change of the read-out against control, counted positive when it falls. A high value points to a strong effect. As a reminder, the IC50 is the concentration that gives 50% inhibition. Lower therefore signals higher potency.

Molecules are shown by their SMILES.

Chain of Histone deacetylase 1 (Q13547 whole entry): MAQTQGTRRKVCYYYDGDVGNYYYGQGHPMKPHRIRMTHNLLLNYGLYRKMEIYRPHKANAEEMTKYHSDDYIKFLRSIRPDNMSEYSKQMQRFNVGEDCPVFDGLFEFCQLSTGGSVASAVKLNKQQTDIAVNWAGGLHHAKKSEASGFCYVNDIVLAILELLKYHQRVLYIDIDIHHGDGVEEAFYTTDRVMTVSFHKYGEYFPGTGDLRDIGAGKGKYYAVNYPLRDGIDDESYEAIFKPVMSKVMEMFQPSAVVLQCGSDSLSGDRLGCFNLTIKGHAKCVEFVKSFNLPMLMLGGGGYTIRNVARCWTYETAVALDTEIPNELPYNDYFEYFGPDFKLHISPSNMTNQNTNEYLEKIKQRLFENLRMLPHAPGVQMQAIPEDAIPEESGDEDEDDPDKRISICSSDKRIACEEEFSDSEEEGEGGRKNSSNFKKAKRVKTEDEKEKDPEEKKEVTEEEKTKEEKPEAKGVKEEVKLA
T1 sequence (Q92769 whole entry): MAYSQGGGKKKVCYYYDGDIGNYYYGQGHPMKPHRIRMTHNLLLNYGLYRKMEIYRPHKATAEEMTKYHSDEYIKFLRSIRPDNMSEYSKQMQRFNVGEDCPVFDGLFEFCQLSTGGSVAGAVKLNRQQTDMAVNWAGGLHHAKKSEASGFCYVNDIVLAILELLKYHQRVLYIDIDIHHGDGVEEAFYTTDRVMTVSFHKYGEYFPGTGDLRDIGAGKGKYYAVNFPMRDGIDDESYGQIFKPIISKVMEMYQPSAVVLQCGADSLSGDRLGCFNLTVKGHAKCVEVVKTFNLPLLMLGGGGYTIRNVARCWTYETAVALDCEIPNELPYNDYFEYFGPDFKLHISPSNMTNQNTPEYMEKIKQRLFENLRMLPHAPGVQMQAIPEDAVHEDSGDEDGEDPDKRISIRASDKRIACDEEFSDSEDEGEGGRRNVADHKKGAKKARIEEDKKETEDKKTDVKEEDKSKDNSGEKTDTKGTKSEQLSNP

Turning to `CCOc1cc(NC(=O)CCCCCNC(=O)CCCc2ccccc2)cc2c1OCC([N+](=O)[O-])=C2`, the GI50 in the assay with A549 (Homo sapiens, A549, 48 h) was found to be 5.23 µM; in the assay with PC-3 (Homo sapiens, PC-3, 48 h) it was 7.17 µM; in the assay on MCF7 (Homo sapiens, MCF7, 48 h) it was 5.96 µM; in the assay on K562 (Homo sapiens, K562, 48 h), 3.32 µM; with HeLa (Homo sapiens, HeLa, 48 h) it was 6.74 µM. On Histone deacetylase 2 [1], the inhibition came out at 8%.
As to `Nc1ccccc1NC(=O)c1ccc(CNC(=O)OCc2cccnc2)cc1` [ENTINOSTAT], the GI50 in the assay with A549 (Homo sapiens, A549, 48 h) was 18.4 µM; in the assay on PC-3 (Homo sapiens, PC-3, 48 h), 19.1 µM; in the assay with MCF7 (Homo sapiens, MCF7, 48 h) it was 19.3 µM; with K562 (Homo sapiens, K562, 48 h), 9.32 µM; in the assay on HeLa (Homo sapiens, HeLa, 48 h) it was 19.2 µM. On Histone deacetylase 2 [1], this compound returned an inhibition of 98%.
Take `O=C(CCCCCCC(=O)Nc1ccccc1)NO` [VORINOSTAT]: the GI50 in the assay with A549 was found to be 19.4 µM; in the assay with PC-3, 18.8 µM; in the assay on MCF7 it was 17.9 µM; in the assay with K562, 3.66 µM; with HeLa, 19.2 µM.
Turning to `CCOc1cc(NC(=O)CCCCNC(=O)[C@H](N)Cc2ccccc2)cc2c1OCC([N+](=O)[O-])=C2`, the IC50 against Histone deacetylase 2 [2] amounted to 2.91 µM; against Histone deacetylase 1, 0.742 µM. Besides, the GI50 was 5.95 µM in the assay with A549 (Homo sapiens, A549, 48 h); 11.2 µM in the assay on PC-3 (Homo sapiens, PC-3, 48 h); 8.72 µM in the assay with MCF7 (Homo sapiens, MCF7, 48 h); 3.56 µM with K562 (Homo sapiens, K562, 48 h); over 20 µM in the assay on HeLa (Homo sapiens, HeLa, 48 h). Further, the inhibition against Histone deacetylase 2 [1] came to 90%.
Regarding `CCOc1cc(NC(=O)CCCCCC(=O)NCCc2ccccc2)cc2c1OCC([N+](=O)[O-])=C2`, the GI50 with A549 (Homo sapiens, A549, 48 h) amounted to 5.32 µM; with PC-3 (Homo sapiens, PC-3, 48 h), 7.09 µM; with MCF7 (Homo sapiens, MCF7, 48 h), 6.12 µM; in the assay on K562 (Homo sapiens, K562, 48 h), 3.47 µM; in the assay with HeLa (Homo sapiens, HeLa, 48 h) it was 6.08 µM. The compound also displayed an inhibition against Histone deacetylase 2 [1] of 0%.
`CCOc1cc(NC(=O)CCCCC(=O)NCCc2ccccc2)cc2c1OCC([N+](=O)[O-])=C2`: the GI50 in the assay on A549 (Homo sapiens, A549, 48 h) turned out to be 6.42 µM; with PC-3 (Homo sapiens, PC-3, 48 h), 6.46 µM; in the assay on MCF7 (Homo sapiens, MCF7, 48 h), 2.82 µM; with K562 (Homo sapiens, K562, 48 h), 2.9 µM; in the assay with HeLa (Homo sapiens, HeLa, 48 h), 9.33 µM. Besides, at Histone deacetylase 2 [1], the inhibition stood at 3%.
`CCOc1cc(NC(=O)CCCCC(=O)Nc2cc(-c3ccccc3)ccc2N)cc2c1OCC([N+](=O)[O-])=C2`: the GI50 is 7.46 µM in the assay with A549 (Homo sapiens, A549, 48 h); 14.6 µM in the assay with PC-3 (Homo sapiens, PC-3, 48 h); 19.9 µM with MCF7 (Homo sapiens, MCF7, 48 h); 5.27 µM with K562 (Homo sapiens, K562, 48 h); over 20 µM in the assay on HeLa (Homo sapiens, HeLa, 48 h). The compound further came in with an inhibition at Histone deacetylase 2 [1] of 59%.
With `CCOc1cc(NC(=O)CCCCC(=O)Nc2cc(-c3ccc(C)s3)ccc2N)cc2c1OCC([N+](=O)[O-])=C2`, the GI50 worked out at 13.8 µM in the assay with A549 (Homo sapiens, A549, 48 h); 13.5 µM with PC-3 (Homo sapiens, PC-3, 48 h); 7.91 µM with MCF7 (Homo sapiens, MCF7, 48 h); 2.94 µM in the assay with K562 (Homo sapiens, K562, 48 h); 18.4 µM in the assay with HeLa (Homo sapiens, HeLa, 48 h). At Histone deacetylase 2 [1], this compound displayed an inhibition of 32%.
For the compound `CCOc1cc(NC(=O)CCCCCNC(=O)[C@H](N)Cc2ccccc2)cc2c1OCC([N+](=O)[O-])=C2`, the IC50 against Histone deacetylase 2 [2] amounted to 1.29 µM; at Histone deacetylase 1, 0.448 µM.
Consider `CCOc1cc(NC(=O)CCCCCC(=O)Nc2ccccc2N)cc2c1OCC([N+](=O)[O-])=C2`, for which the IC50 against Histone deacetylase 2 [2] was determined as 0.759 µM; on Histone deacetylase 1, 0.288 µM. Also, the concentration for 50% growth inhibition (GI50) with A549 (Homo sapiens, A549, 48 h) was 12.2 µM; with PC-3 (Homo sapiens, PC-3, 48 h), over 20 µM; in the assay with MCF7 (Homo sapiens, MCF7, 48 h) it was 19.4 µM; in the assay on K562 (Homo sapiens, K562, 48 h), 3.96 µM; in the assay with HeLa (Homo sapiens, HeLa, 48 h), 14.9 µM. The compound also registered an inhibition against Histone deacetylase 2 [1] of 96%.
Consider `CCOc1cc(NC(=O)CCCCCNC(=O)Cc2ccccc2)cc2c1OCC([N+](=O)[O-])=C2`, for which the GI50 with A549 (Homo sapiens, A549, 48 h) was 4.8 µM; in the assay on PC-3 (Homo sapiens, PC-3, 48 h), 13.2 µM; in the assay with MCF7 (Homo sapiens, MCF7, 48 h) it was 4.17 µM; in the assay on K562 (Homo sapiens, K562, 48 h), 1.53 µM; in the assay with HeLa (Homo sapiens, HeLa, 48 h) it was 5.8 µM. On Histone deacetylase 2 [1], the inhibition was found to be 0%.
In the case of `CCOc1cc(NC(=O)CCCCCCC(=O)Nc2cc(-c3ccc(C)s3)ccc2N)cc2c1OCC([N+](=O)[O-])=C2`, the GI50 with A549 (Homo sapiens, A549, 48 h) was 5.83 µM; with PC-3 (Homo sapiens, PC-3, 48 h) it was 6.36 µM; with MCF7 (Homo sapiens, MCF7, 48 h), 5.33 µM; in the assay with K562 (Homo sapiens, K562, 48 h), 3.11 µM; in the assay with HeLa (Homo sapiens, HeLa, 48 h), over 20 µM. The inhibition at Histone deacetylase 2 [1] worked out at 55%.
Regarding `CCOc1cc(NC(=O)CCCCCCC(=O)NCCc2ccccc2)cc2c1OCC([N+](=O)[O-])=C2`, the 50% growth inhibitory concentration (GI50) with A549 (Homo sapiens, A549, 48 h) is 18.2 µM; in the assay on PC-3 (Homo sapiens, PC-3, 48 h) it was 10.9 µM; in the assay on MCF7 (Homo sapiens, MCF7, 48 h), 19.1 µM; in the assay with K562 (Homo sapiens, K562, 48 h) it was 4.12 µM; in the assay on HeLa (Homo sapiens, HeLa, 48 h) it was over 20 µM. Also, the inhibition against Histone deacetylase 2 [1] is 8%.
For `CCOc1cc(NC(=O)CCCCC(=O)Nc2ccccc2N)cc2c1OCC([N+](=O)[O-])=C2`, the GI50 worked out at 9.63 µM with A549 (Homo sapiens, A549, 48 h); 18.9 µM in the assay on PC-3 (Homo sapiens, PC-3, 48 h); 17.3 µM with MCF7 (Homo sapiens, MCF7, 48 h); 3.68 µM in the assay on K562 (Homo sapiens, K562, 48 h); 13.1 µM in the assay with HeLa (Homo sapiens, HeLa, 48 h). The compound also gave an inhibition against Histone deacetylase 2 [1] of 91%.
In the case of `CCOc1cc(NC(=O)CCCCCC(=O)Nc2cc(-c3ccc(C)s3)ccc2N)cc2c1OCC([N+](=O)[O-])=C2`, the IC50 on Histone deacetylase 2 [2] is 1.79 µM; on Histone deacetylase 1, 0.366 µM. For the same compound, the GI50 in the assay on A549 (Homo sapiens, A549, 48 h) was 5.07 µM; with PC-3 (Homo sapiens, PC-3, 48 h), 11.4 µM; with MCF7 (Homo sapiens, MCF7, 48 h), over 20 µM; in the assay on K562 (Homo sapiens, K562, 48 h), 2.92 µM; in the assay with HeLa (Homo sapiens, HeLa, 48 h) it was over 20 µM. On Histone deacetylase 2 [1], this compound returned an inhibition of 62%.
For `CCOc1cc(NC(=O)CCCCCCC(=O)Nc2ccccc2N)cc2c1OCC([N+](=O)[O-])=C2`, the IC50 against Histone deacetylase 2 [2] was found to be 0.439 µM; at Histone deacetylase 1, 0.232 µM. Besides, the GI50 was 11.7 µM with A549 (Homo sapiens, A549, 48 h); 8.63 µM in the assay with PC-3 (Homo sapiens, PC-3, 48 h); 13.5 µM in the assay with MCF7 (Homo sapiens, MCF7, 48 h); 3.36 µM in the assay on K562 (Homo sapiens, K562, 48 h); over 20 µM in the assay with HeLa (Homo sapiens, HeLa, 48 h). On Histone deacetylase 2 [1], this compound showed an inhibition of 93%.
For the compound `CCOc1cc(NC(=O)CCCCCCC(=O)Nc2cc(-c3ccccc3)ccc2N)cc2c1OCC([N+](=O)[O-])=C2`, the IC50 against Histone deacetylase 2 [2] was found to be 0.827 µM; on Histone deacetylase 1, 0.179 µM. Also, the GI50 with A549 (Homo sapiens, A549, 48 h) amounted to 5.4 µM; in the assay with PC-3 (Homo sapiens, PC-3, 48 h) it was 10.7 µM; with MCF7 (Homo sapiens, MCF7, 48 h), 9.37 µM; in the assay with K562 (Homo sapiens, K562, 48 h) it was 2 µM; with HeLa (Homo sapiens, HeLa, 48 h) it was 16.2 µM. Further, the inhibition against Histone deacetylase 2 [1] was 72%.
With `CCOc1cc(NC(=O)CCCCCC(=O)Nc2cc(-c3ccccc3)ccc2N)cc2c1OCC([N+](=O)[O-])=C2`, the IC50 against Histone deacetylase 2 [2] stood at 0.659 µM; on Histone deacetylase 1, 0.128 µM. Also, the concentration for 50% growth inhibition (GI50) came to 4.86 µM in the assay with A549 (Homo sapiens, A549, 48 h); 7.08 µM in the assay on PC-3 (Homo sapiens, PC-3, 48 h); 7.03 µM in the assay on MCF7 (Homo sapiens, MCF7, 48 h); 3.21 µM with K562 (Homo sapiens, K562, 48 h); 19.8 µM in the assay with HeLa (Homo sapiens, HeLa, 48 h). The same compound displayed an inhibition at Histone deacetylase 2 [1] of 81%.
